According to publication PMC6979384, “Characterization of the plant homeodomain (PHD) reader family for their histone tail interactions” (Epigenetics & Chromatin, 2020):
Where no end group is shown, it is not given here. [ ]: non-standard residue; d: D form. Arg(Me2a) = CN(C)C(=N)NCCC[C@H](N)C(=O)O; pS = N[C@@H](COP(=O)(O)O)C(=O)O

Assays:
Experiment in all cases: Histone peptide microarray
Assay type in all cases: binding, human
BAZ2B = details: BAZ2B, GST-tagged; arrays performed twice, n of 4
Description: (§1) To more comprehensively define the histone interactions of the 31 PHD readers identified from the domain microarray analyses, we probed each on an alternate microarray platform containing a library of 293 synthetic histone peptides with single or combinatorial PTMs (Additional file 2: Figure S4 and Additional file 3: Table S2).
(§2) The 31 GST-tagged PHD readers identified in the PHD finger domain array were expressed and purified as previously. Histone peptide arrays and peptide pulldown assays were conducted as recently described (specifically, the optimized protocol from Petell et al. for the former).
(§3) Supplementary file 13072_2020_328_MOESM3_ESM.xlsx: Additional file 3: Table S2. […] Excel Tab Peptide List is a compiled list of the entire 293 histone peptide library with amino acid sequence ranges. […] Each number corresponds to the peptide number designated in Peptide List. Excel Tab Average Signals is a compiled set of binding data: chromatin reader at 0.5 μM vs. entire 293 peptide library. Data is presented as the average and standard deviation of 4 replicates. The average signals are colored to indicate signal intensity with green being strong and white being weak/low. […] Key: red= stronger relative binding; blue = weaker relative binding. Excel Tab Array info summary is a table summarizing the domains, sequence coverage, array signal range, and noise for each of the GST-tagged readers assayed on the peptide microarrays.

PHF8 = details: PHF8, GST-tagged; arrays performed twice, n of 4
Description: as §1, §2, §3

ING5 = details: ING5, GST-tagged; arrays performed twice, n of 4
Description: as §1, §2, §3

DIDO1 = details: DIDO1, GST-tagged; arrays performed twice, n of 4
Description: as §1, §2, §3

KDM4C (TTP) = details: KDM4C (TTP), GST-tagged; arrays performed twice, n of 4
Description: as §1, §2, §3

ING2 = details: ING2, GST-tagged; arrays performed twice, n of 4
Description: as §1, §2, §3

PHRF1 (RP) = details: PHRF1 (RP), GST-tagged; arrays performed twice, n of 4
Description: as §1, §2, §3

CHD5 (PCC) = details: CHD5 (PCC), GST-tagged; arrays performed twice, n of 4
Description: as §1, §2, §3

KDM5A (1) = details: KDM5A (1), GST-tagged; arrays performed twice, n of 4
Description: as §1, §2, §3

CHD4 (PPCC) = details: CHD4 (PPCC), GST-tagged; arrays performed twice, n of 4
Description: as §1, §2, §3

DPF2 (PPC2W2) = details: DPF2 (PPC2W2), GST-tagged; arrays performed twice, n of 4
Description: as §1, §2, §3

AIRE (PP) = details: AIRE (PP), GST-tagged; arrays performed twice, n of 4
Description: as §1, §2, §3

TRIM66 (PB) = details: TRIM66 (PB), GST-tagged; arrays performed twice, n of 4
Description: as §1, §2, §3

CHD5 (PPCC) = details: CHD5 (PPCC), GST-tagged; arrays performed twice, n of 4
Description: as §1, §2, §3

MORC3 (CW) = details: MORC3 (CW), GST-tagged; arrays performed twice, n of 4
Description: as §1, §2, §3

PHF23 = details: PHF23, GST-tagged; arrays performed twice, n of 4
Description: as §1, §2, §3

MLL5 = details: MLL5, GST-tagged; arrays performed twice, n of 4
Description: as §1, §2, §3

PHF2 = details: PHF2, GST-tagged; arrays performed twice, n of 4
Description: as §1, §2, §3

KDM5B (1) = details: KDM5B (1), GST-tagged; arrays performed twice, n of 4
Description: as §1, §2, §3

PHF21A = details: PHF21A, GST-tagged; arrays performed twice, n of 4
Description: as §1, §2, §3

PHF13 = details: PHF13, GST-tagged; arrays performed twice, n of 4
Description: as §1, §2, §3

KDM5A (3) = details: KDM5A (3), GST-tagged; arrays performed twice, n of 4
Description: as §1, §2, §3

SP140L = details: SP140L, GST-tagged; arrays performed twice, n of 4
Description: as §1, §2, §3

RAG2 = details: RAG2, GST-tagged; arrays performed twice, n of 4
Description: as §1, §2, §3

ING3 = details: ING3, GST-tagged; arrays performed twice, n of 4
Description: as §1, §2, §3

TAF3 = details: TAF3, GST-tagged; arrays performed twice, n of 4
Description: as §1, §2, §3

BPTF (PB) = details: BPTF (PB), GST-tagged; arrays performed twice, n of 4
Description: as §1, §2, §3

KDM7A = details: KDM7A, GST-tagged; arrays performed twice, n of 4
Description: as §1, §2, §3

KDM5B (3) = details: KDM5B (3), GST-tagged; arrays performed twice, n of 4
Description: as §1, §2, §3

ING1 = details: ING1, GST-tagged; arrays performed twice, n of 4
Description: as §1, §2, §3

ING4 = details: ING4, GST-tagged; arrays performed twice, n of 4
Description: as §1, §2, §3

Row | Array Heatmap value (peptide array binding signal) (BAZ2B) | Array Heatmap value (peptide array binding signal) (PHF8) | Array Heatmap value (peptide array binding signal) (ING5) | Array Heatmap value (peptide array binding signal) (DIDO1) | Array Heatmap value (peptide array binding signal) (KDM4C (TTP)) | Array Heatmap value (peptide array binding signal) (ING2) | Array Heatmap value (peptide array binding signal) (PHRF1 (RP)) | Array Heatmap value (peptide array binding signal) (CHD5 (PCC)) | Array Heatmap value (peptide array binding signal) (KDM5A (1)) | Array Heatmap value (peptide array binding signal) (CHD4 (PPCC)) | Array Heatmap value (peptide array binding signal) (DPF2 (PPC2W2)) | Array Heatmap value (peptide array binding signal) (AIRE (PP)) | Array Heatmap value (peptide array binding signal) (TRIM66 (PB)) | Array Heatmap value (peptide array binding signal) (CHD5 (PPCC)) | Array Heatmap value (peptide array binding signal) (MORC3 (CW)) | Array Heatmap value (peptide array binding signal) (PHF23) | Array Heatmap value (peptide array binding signal) (MLL5) | Array Heatmap value (peptide array binding signal) (PHF2) | Array Heatmap value (peptide array binding signal) (KDM5B (1)) | Array Heatmap value (peptide array binding signal) (PHF21A) | Substance | other results
1 | 0.5108 | 0.3894 | 0.4136 | 0.7538 | 0.5547 | 0.6108 | 0.5154 | 0.8457 | 0.5224 | 0.5877 | 0.758 | 0.4865 | 0.6131 | 0.6207 | 0.4152 | 0.5991 | 0.5765 | 0.5212 | 0.7084 | 0.4866 | H2AS1p + R3me2a + K5ac: H2A 1-17 ([pS]G[Arg(Me2a)]GK(Ac)QGGKARAKAKTR; UniProt P0C0S8 2-18, looked up, fragment) | Array Heatmap value (peptide array binding signal) (PHF13): 0.6406; Array Heatmap value (peptide array binding signal) (KDM5A (3)): 0.5245; Array Heatmap value (peptide array binding signal) (SP140L): 0.3795; Array Heatmap value (peptide array binding signal) (RAG2): 0.2825; Array Heatmap value (peptide array binding signal) (ING3): 0.5376; Array Heatmap value (peptide array binding signal) (TAF3): 0.2891; Array Heatmap value (peptide array binding signal) (BPTF (PB)): 0.3885; Array Heatmap value (peptide array binding signal) (KDM7A): 0.4163; Array Heatmap value (peptide array binding signal) (KDM5B (3)): 0.5099; Array Heatmap value (peptide array binding signal) (ING1): 0.5672; Array Heatmap value (peptide array binding signal) (ING4): 0.4949
2 | 0.4423 | 0.3348 | 0.3322 | 0.7308 | 0.4463 | 0.621 | 0.3943 | 0.733 | 0.4587 | 0.5518 | 0.6502 | 0.4547 | 0.5363 | 0.5152 | 0.4162 | 0.5369 | 0.533 | 0.5225 | 0.6162 | 0.4468 | H2AX (132-142): H2AX 132-142 (GKKATQASQEY; UniProt P16104 133-143, looked up, fragment) | Array Heatmap value (peptide array binding signal) (PHF13): 0.5577; Array Heatmap value (peptide array binding signal) (KDM5A (3)): 0.478; Array Heatmap value (peptide array binding signal) (SP140L): 0.3692; Array Heatmap value (peptide array binding signal) (RAG2): 0.2674; Array Heatmap value (peptide array binding signal) (ING3): 0.4477; Array Heatmap value (peptide array binding signal) (TAF3): 0.2878; Array Heatmap value (peptide array binding signal) (BPTF (PB)): 0.3256; Array Heatmap value (peptide array binding signal) (KDM7A): 0.3262; Array Heatmap value (peptide array binding signal) (KDM5B (3)): 0.4637; Array Heatmap value (peptide array binding signal) (ING1): 0.536; Array Heatmap value (peptide array binding signal) (ING4): 0.4334
3 | 0.5073 | 0.3729 | 0.3847 | 0.6489 | 0.5256 | 0.5973 | 0.411 | 0.7872 | 0.5265 | 0.5526 | 0.653 | 0.5219 | 0.5363 | 0.5731 | 0.3885 | 0.5395 | 0.5137 | 0.4467 | 0.697 | 0.4613 | H2AX (S139p): H2AX 132-142 (GKKATQA[pS]QEY; UniProt P16104 133-143, looked up, fragment) | Array Heatmap value (peptide array binding signal) (PHF13): 0.6185; Array Heatmap value (peptide array binding signal) (KDM5A (3)): 0.4478; Array Heatmap value (peptide array binding signal) (SP140L): 0.363; Array Heatmap value (peptide array binding signal) (RAG2): 0.2586; Array Heatmap value (peptide array binding signal) (ING3): 0.4704; Array Heatmap value (peptide array binding signal) (TAF3): 0.2793; Array Heatmap value (peptide array binding signal) (BPTF (PB)): 0.3554; Array Heatmap value (peptide array binding signal) (KDM7A): 0.4369; Array Heatmap value (peptide array binding signal) (KDM5B (3)): 0.5358; Array Heatmap value (peptide array binding signal) (ING1): 0.495; Array Heatmap value (peptide array binding signal) (ING4): 0.4783
